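48-hour exposure; five concentrations; linearly interpolated endpoints. TGI: concentration producing complete growth inhibition.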
What was measured:
Test in all cases: inhibition of tumour cell growth, NCI panel, 48 h
[1] = tested on: HL-60(TB) leukemia
[2] = tested on: MALME-3M melanoma
[3] = tested on: BT-549 breast
[4] = tested on: 786-0 renal
[5] = tested on: PC-3 prostate
[6] = tested on: EKVX NSCLC
[7] = tested on: MDA-MB-231 breast
[8] = tested on: SF-268 CNS
[9] = tested on: MDA-N
[10] = tested on: DU-145 prostate
[11] = tested on: SNB-75 CNS
[12] = tested on: SK-OV-3 ovarian
[13] = tested on: IGROV1 ovarian
[14] = tested on: CCRF-CEM leukemia
[15] = tested on: SK-MEL-28 melanoma
[16] = tested on: U251 CNS
[17] = tested on: HT29 colon
[18] = tested on: NCI-H226 lung
[19] = tested on: ACHN renal
[20] = tested on: COLO 205 colon
[21] = tested on: HCT-15 colon
[22] = tested on: OVCAR-5 ovarian
[23] = tested on: HCT-116 colon
[24] = tested on: CAKI-1 renal
[25] = tested on: KM12 colon
[26] = tested on: M14 melanoma
[27] = tested on: RXF 393 renal
[28] = tested on: A498 renal
[29] = tested on: SW-620 colon
[30] = tested on: SF-295 CNS
[31] = tested on: MCF7 breast
[32] = tested on: SNB-19 CNS
[33] = tested on: NCI/ADR-RES ovarian
[34] = tested on: NCI-H522 lung
[35] = tested on: UACC-62 melanoma
[36] = tested on: MOLT-4 leukemia
[37] = tested on: NCI-H23 lung
[38] = tested on: HOP-62 NSCLC
[39] = tested on: LOX IMVI melanoma
[40] = tested on: MDA-MB-435
[41] = tested on: HS 578T breast
[42] = tested on: UACC-257 melanoma
[43] = tested on: SK-MEL-2 melanoma
[44] = tested on: SN12C renal
[45] = tested on: TK-10 renal
[46] = tested on: OVCAR-4 ovarian
[47] = tested on: A549 NSCLC
[48] = tested on: SF-539 CNS
[49] = tested on: OVCAR-8 ovarian
[50] = tested on: UO-31 renal
[51] = tested on: SK-MEL-5 melanoma
[52] = tested on: T-47D breast
[53] = tested on: K-562 leukemia
[54] = tested on: SR leukemia
[55] = tested on: NCI-H460 lung
[56] = tested on: HCC-2998 colon
[57] = tested on: HOP-92 NSCLC
[58] = tested on: RPMI-8226 leukemia

**Q.** What does the source list for `CNc1cc(OCc2ccccc2)c(OC)cc1C(=O)N1CCC[C@H]1CO`?
**A.** TGI [1]: > 100 µM; TGI [2]: > 100 µM; TGI [3]: > 100 µM; TGI [4]: > 100 µM; TGI [5]: > 100 µM; TGI [6]: > 100 µM; TGI [7]: > 100 µM; TGI [8]: > 100 µM; TGI [9]: > 100 µM; TGI [10]: > 100 µM; TGI [11]: > 100 µM; TGI [12]: > 100 µM; TGI [13]: > 100 µM; TGI [14]: > 100 µM; TGI [15]: > 100 µM; TGI [16]: > 100 µM; TGI [17]: > 100 µM; TGI [18]: > 100 µM; TGI [19]: > 100 µM; TGI [20]: > 100 µM; TGI [21]: > 100 µM; TGI [22]: > 100 µM; TGI [23]: > 100 µM; TGI [24]: > 100 µM; TGI [25]: > 100 µM; TGI [26]: > 100 µM; TGI [27]: > 100 µM; TGI [28]: > 100 µM; TGI [29]: > 100 µM; TGI [30]: > 100 µM; TGI [31]: > 100 µM; TGI [32]: > 100 µM; TGI [33]: > 100 µM; TGI [34]: > 100 µM; TGI [35]: > 100 µM; TGI [36]: > 100 µM; TGI [37]: > 100 µM; TGI [38]: > 100 µM; TGI [39]: > 100 µM; TGI [40]: > 100 µM; TGI [41]: > 100 µM; TGI [42]: > 100 µM; TGI [43]: > 100 µM; TGI [44]: > 100 µM; TGI [45]: > 100 µM; TGI [46]: > 100 µM; TGI [47]: > 100 µM; TGI [48]: > 100 µM; TGI [49]: > 100 µM; TGI [50]: > 100 µM; TGI [51]: > 100 µM; TGI [52]: > 100 µM

**Q.** Which TGI [1] does the source give for `COc1ccc2c(c1)CN1C(=N2)CSC1c1c(Cl)cccc1[N+](=O)[O-]` (configuration not stated) here?
**A.** 43.8 µM

**Q.** What about the TGI [2] of the same compound?
**A.** > 100 µM

**Q.** And the TGI [3]?
**A.** 31.9 µM

**Q.** What about the TGI [4] of the same compound?
**A.** 76.9 µM

**Q.** What about the TGI [5] of the same compound?
**A.** 66.3 µM

**Q.** What about the TGI [6] of the same compound?
**A.** 77.2 µM

**Q.** What about the TGI [7] of the same compound?
**A.** 34.6 µM

**Q.** And the TGI [8]?
**A.** 53.8 µM

**Q.** What about the TGI [9] of the same compound?
**A.** 40.9 µM

**Q.** And the TGI [11]?
**A.** 74.3 µM

**Q.** What about the TGI [12] of the same compound?
**A.** > 100 µM

**Q.** And the TGI [13]?
**A.** > 100 µM

**Q.** And the TGI [53]?
**A.** 61.1 µM

**Q.** What about the TGI [15] of the same compound?
**A.** 44.3 µM

**Q.** And the TGI [16]?
**A.** 37 µM

**Q.** And the TGI [17]?
**A.** 38.1 µM

**Q.** What about the TGI [18] of the same compound?
**A.** 32.2 µM

**Q.** And the TGI [19]?
**A.** > 100 µM

**Q.** What about the TGI [20] of the same compound?
**A.** 67.9 µM

**Q.** And the TGI [21]?
**A.** 40.3 µM

**Q.** And the TGI [22]?
**A.** 95.7 µM

**Q.** What about the TGI [23] of the same compound?
**A.** 29.5 µM

**Q.** What about the TGI [24] of the same compound?
**A.** 64.2 µM

**Q.** And the TGI [25]?
**A.** 44.2 µM

**Q.** What about the TGI [26] of the same compound?
**A.** 37.3 µM

**Q.** What about the TGI [27] of the same compound?
**A.** 52.2 µM

**Q.** What about the TGI [29] of the same compound?
**A.** 50.6 µM

**Q.** And the TGI [30]?
**A.** 52.6 µM

**Q.** And the TGI [31]?
**A.** 30 µM

**Q.** And the TGI [54]?
**A.** 39 µM

**Q.** What about the TGI [32] of the same compound?
**A.** > 100 µM

**Q.** What about the TGI [33] of the same compound?
**A.** 46.4 µM

**Q.** What about the TGI [34] of the same compound?
**A.** 68.6 µM

**Q.** And the TGI [55]?
**A.** 31.5 µM

**Q.** And the TGI [35]?
**A.** 37 µM

**Q.** What about the TGI [36] of the same compound?
**A.** 34.8 µM

**Q.** What about the TGI [37] of the same compound?
**A.** 56.1 µM

**Q.** And the TGI [38]?
**A.** > 100 µM

**Q.** And the TGI [39]?
**A.** 34.9 µM

**Q.** What about the TGI [40] of the same compound?
**A.** 47.5 µM

**Q.** And the TGI [41]?
**A.** > 100 µM

**Q.** What about the TGI [42] of the same compound?
**A.** 42.6 µM

**Q.** What about the TGI [43] of the same compound?
**A.** 34.1 µM

**Q.** And the TGI [44]?
**A.** 35 µM

**Q.** And the TGI [45]?
**A.** 84.1 µM

**Q.** What about the TGI [46] of the same compound?
**A.** > 100 µM

**Q.** What about the TGI [47] of the same compound?
**A.** > 100 µM

**Q.** What about the TGI [48] of the same compound?
**A.** 33 µM

**Q.** And the TGI [49]?
**A.** > 100 µM

**Q.** And the TGI [56]?
**A.** 41.6 µM

**Q.** What about the TGI [57] of the same compound?
**A.** 55.7 µM

**Q.** And the TGI [50]?
**A.** 65.1 µM

**Q.** What about the TGI [51] of the same compound?
**A.** 27 µM

**Q.** What about the TGI [52] of the same compound?
**A.** > 100 µM

**Q.** And the TGI [58]?
**A.** 34.1 µM

Source: PubChem BioAssay (NCI)
